Test results as given in publication PMC6685790 (Nature structural & molecular biology, 2008).
Changes are numbered by the printed parent chain.

Key:
Type in all cases: cell-based
GlyR α1^F100A = molecular target: T1, GlyR α1^F100A (Homo sapiens, UniProt P23415, F128A); assay: Whole-cell recording of substituted GlyR in HEK cells
T1 sequence (P23415 29-457 F128A): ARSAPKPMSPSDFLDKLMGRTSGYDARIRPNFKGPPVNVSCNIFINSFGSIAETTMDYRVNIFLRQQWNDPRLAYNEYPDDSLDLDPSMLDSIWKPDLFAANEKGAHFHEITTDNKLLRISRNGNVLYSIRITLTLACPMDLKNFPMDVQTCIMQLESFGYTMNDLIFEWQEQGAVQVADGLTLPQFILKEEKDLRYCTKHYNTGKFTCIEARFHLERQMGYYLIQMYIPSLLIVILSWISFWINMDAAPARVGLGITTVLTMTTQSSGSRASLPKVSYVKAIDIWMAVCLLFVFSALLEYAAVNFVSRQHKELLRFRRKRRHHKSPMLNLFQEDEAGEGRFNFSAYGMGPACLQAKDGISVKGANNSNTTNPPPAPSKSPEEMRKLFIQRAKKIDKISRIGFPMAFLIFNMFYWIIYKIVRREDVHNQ

GlyR α1 WT = molecular target: T2, GlyR α1 WT (Homo sapiens, UniProt P23415); assay: Whole-cell recording of wild-type GlyR α1 expressed in HEK cells
T2 sequence (P23415 29-457): T1 sequence (P23415 29-457 F128A) with A100F

GlyR α1^F99A = molecular target: T3, GlyR α1^F99A (Homo sapiens, UniProt P23415, F127A); assay: Whole-cell recording of substituted GlyR in HEK cells; details: α1^F99A
T3 sequence (P23415 29-457 F127A): T1 sequence (P23415 29-457 F128A) with F99A, A100F

GlyR α1^V60A = molecular target: T4, GlyR α1^V60A (Homo sapiens, UniProt P23415, V88A); assay: as above
T4 sequence (P23415 29-457 V88A): T1 sequence (P23415 29-457 F128A) with V60A, A100F

GlyR α1^L134A = molecular target: T5, GlyR α1^L134A (Homo sapiens, UniProt P23415, L162A); assay: as above; details: α1^L134A
T5 sequence (P23415 29-457 L162A): T1 sequence (P23415 29-457 F128A) with A100F, L134A

GlyR α1^F99A,E157A = molecular target: T6, GlyR α1^F99A,E157A (Homo sapiens, UniProt P23415, E185A/F127A); assay: as above
T6 sequence (P23415 29-457 F127A/E185A): T1 sequence (P23415 29-457 F128A) with F99A, A100F, E157A

[1] = maximal Zn^2+ response as percentage of maximal glycine response in same cell
[2] = read-out: Zn^2+ Activation EC50, direct activation without glycine
[3] = read-out: Zn^2+ Inhibition IC50, modulation of EC50 glycine currents
[4] = direct activation without glycine

With `[Zn+2]` [Zn^2+] the “Zn^2+ Activation nH” value (GlyR α1^F100A; Hill slope) was 0.5 ± 0.1, the “Zn^2+ Activation Relative efficacy (% Gly Imax)” value (GlyR α1^F100A; [1]) was 7 ± 4 % Gly Imax and the EC50 (GlyR α1^F100A; [2]) was 9.2 ± 0.6 µM. The IC50 (GlyR α1^F100A; [3]) was over 1000 µM, the “Zn^2+ Activation EC50” value (GlyR α1 WT; [4]) was “None” and the IC50 (GlyR α1 WT; [3]) was 15 ± 2 µM. The EC50 (GlyR α1^F99A; [2]) was 0.13 ± 0.03 µM, the IC50 (GlyR α1^F99A; [3]) was over 1000 µM and the “Zn^2+ Activation nH” value (GlyR α1^F99A; Hill slope) was 1.1 ± 0.1. The “Zn^2+ Activation Relative efficacy (% Gly Imax)” value (GlyR α1^F99A; [1]) was 86 ± 13 % Gly Imax, the “Zn^2+ Activation EC50” value (GlyR α1^V60A; [4]) was “None” and the IC50 (GlyR α1^V60A; [3]) was 10.1 ± 1.26 µM. For the same compound, the EC50 (GlyR α1^L134A; [2]) was 0.06 ± 0.01 µM, the IC50 (GlyR α1^L134A; [3]) was over 1000 µM and the “Zn^2+ Activation nH” value (GlyR α1^L134A; Hill slope) was 1.3 ± 0.1. The “Zn^2+ Activation Relative efficacy (% Gly Imax)” value (GlyR α1^L134A; [1]) was 38 ± 9 % Gly Imax, the “Decrease in sensitivity to Zn^2+ activation” value (GlyR α1^F99A,E157A; E157A on α1^F99A background vs α1^F99A) was 3 fold and the “Zn^2+ sensitivity compared with α1^F99A” value (GlyR α1^F99A,E157A; α1^F99A,E157A, Zn^2+ activation) was “identical”.
`NCC(=O)O` [Glycine, glycine] was tested, and the “Glycine Imax” value (GlyR α1^F100A) was 4.5 ± 0.7 nA, the “Glycine nH” value (GlyR α1^F100A; Hill slope) was 1.8 ± 0.2 and the “Glycine Imax” value (GlyR α1 WT) was 6.8 ± 0.5 nA. The “Glycine nH” value (GlyR α1 WT; Hill slope) was 2.7 ± 0.2, the “Glycine Imax” value (GlyR α1^F99A) was 3.9 ± 0.4 nA and the “Glycine nH” value (GlyR α1^F99A; Hill slope) was 2.3 ± 0.3. For the same compound, the “Glycine Imax” value (GlyR α1^V60A) was 6.5 ± 1.3 nA, the “Glycine nH” value (GlyR α1^V60A; Hill slope) was 3.5 ± 0.8 and the “Glycine Imax” value (GlyR α1^L134A) was 6.0 ± 0.3 nA. For the same compound, the “Glycine nH” value (GlyR α1^L134A; Hill slope) was 3.0 ± 0.4 and the Activation by glycine (GlyR α1^F99A,E157A; α1^F99A,E157A, up to 10 mM glycine) was “insensitive”.
